Measured values taken from ChEMBL document CHEMBL1133224, “New ratiometric fluorescent calcium indicators with moderately attenuated binding affinities” (Bioorg Med Chem Lett, 2000).

Experiment: Calcium binding affinity (fluorescent calcium probe) expressed in terms of dissociation constant

| Compound | Kd [nM] |
| --- | --- |
| O=C(O)CN(CC(=O)O)c1ccc(F)cc1OCCOc1cc(-c2cc3ccc(C(=O)O)cc3[nH]2)ccc1N(CC(=O)O)CC(=O)O | 470 |
| O=C(O)CN(CC(=O)O)c1ccc(Cl)cc1OCCOc1cc2cc(-c3ncc(C(=O)O)o3)oc2cc1N(CC(=O)O)CC(=O)O | 400 |
| Cc1ccc(N(CC(=O)O)CC(=O)O)c(OCCOc2cc3cc(-c4ncc(C(=O)O)o4)oc3cc2N(CC(=O)O)CC(=O)O)c1 | 140 |
| O=C(O)CN(CC(=O)O)c1ccc(F)cc1OCCOc1cc2cc(-c3ncc(C(=O)O)o3)oc2cc1N(CC(=O)O)CC(=O)O | 400 |
| O=C(O)CN(CC(=O)O)c1ccc(F)cc1OCCOc1cc(-c2nc3cc(C(F)(F)F)ccc3s2)ccc1N(CC(=O)O)CC(=O)O | 1400 |
| O=C(O)CN(CC(=O)O)c1cc2oc(-c3ncc(C(=O)O)o3)cc2cc1OCCOc1c(F)cccc1N(CC(=O)O)CC(=O)O | 5300 |
| Cc1ccc(N(CC(=O)O)CC(=O)O)c(OCCOc2cc(-c3nc4cc(C(F)(F)F)ccc4s3)ccc2N(CC(=O)O)CC(=O)O)c1 | 660 |
| Cc1ccc(N(CC(=O)O)CC(=O)O)c(OCCOc2cc(-c3cc4ccc(C(=O)O)cc4[nH]3)ccc2N(CC(=O)O)CC(=O)O)c1 | 230 |
| O=C(O)CN(CC(=O)O)c1cc(F)ccc1OCCOc1cc2cc(-c3ncc(C(=O)O)o3)oc2cc1N(CC(=O)O)CC(=O)O | 770 |
